Data: US9744160B2, “Pharmaceutical compositions comprising sulbactam and beta-lactamase inhibitor” (WOCKHARDT LIMITED, priority 2011, dated 2017)

System: A. baumanii 13305
Assay: MIC by agar dilution (CLSI)
Assay type: cell-based
Method: In a typical study, overnight grown bacterial cultures were diluted appropriately and inoculated on the agar media containing doubling dilutions of composition or pharmaceutically active ingredients disclosed herein. Observation for growth or no growth was performed after 16-20 hours of incubation at 35±2° C. in ambient air. The overall procedure was performed as per Clinical and Laboratory Standards Institute (CLSI) recommendations (Clinical and Laboratory Standards Institute (CLSI), performance Standards for Antimicrobial Susceptibility Testing, 20th Informational Supplement, M 100-S20, Volume 30, No. 1, 2010).

MIC of cefepime in presence of Sulbactam (4 to 8 mcg/ml): 4 µg/mL
SMILES: CO/N=C(\C(=O)N[C@@H]1C(=O)N2C(C(=O)[O-])=C(C[N+]3(C)CCCC3)CS[C@H]12)c1csc(N)n1 [Cefepime]
